# Experimental data taken from patent publication US7285536B2, “Anti-cancer therapeutic compounds” (Yeda Research and Development Co., Ltd., priority 2001, dated 2007).
# System: 3LL lewis lung carcinoma, variant D122
# Test: 3LL Lewis lung carcinoma (D122) experimental lung metastasis in mice: survival and lung weight
# Type: in vivo, C57BL/6 mice
# Experimental: C57BL/6, 12 months old male mice were obtained from the Jackson Laboratory.
# Syngeneic, 3LL lewis lung carcinoma, variant D122, was obtained from the Weizmann Institute of Science. This tumor line develops metastases in the lungs after intravenous (iv) inoculation.
# Cells were cultured in DMEM medium containing high glucose and supplemented with 10% FCS, glutamine and penicillin.
# Cells were incubated 24 hr before inoculation into the mice with the different disaccharides (300 ng/ml) in culture medium. Then, the cells were washed and injected i. v., (500,000 cells per mouse) in 100 μl PBS containing 30 ng of the corresponding disaccharide.
# The number of dead mice was counted each day after the inoculation was performed. The mice were sacrificed at day 50 and the weights of their lung were determined.
# Each group, injected by one of the disaccharides, contained 16 mice. Control mice received PBS alone. The different disaccharides, were injected to the mice subcutaneously (30 ng per mouse in 0.1 ml of PBS), one day before and one and two days after cell inoculation.
# [1] = day 49 after 3LL injection, 16 mice per group, DS 30 ng per mouse s.c. one day before and one and two days after inoculation
compound,measurement,setting,value
"CC1(C)OC(COS(=O)(=O)O)[C@@](C)(COC[C@@]2(C)OC(C(=O)O)=CC(O)C2OS(=O)(=O)O)C(O)C1N (stereo partly drawn) [DS 8892, α-ΔUA-2S-[1→4]-GlcN-6S]",responders at 30 ng,"Mus musculus, Lewis lung carcinoma, sc, 1176 h, day 49 after 3LL injection, [live mice/total mice] × 100, PBS control 6.2",25%
same,inhibition in vivo at 30 ng,"Mus musculus, Lewis lung carcinoma, sc, 1200 h, day 50 after 3LL injection, [1-(weights of treated group/weights of control group)] × 100, read-out: Decrease (%) of lung weight",28.8%
same,dead mice,[1],12
same,live mice,[1],4
same,Weights of lungs ± SD,"day 50 after 3LL injection, PBS 0.92",0.66 ± 0.18 gr.
same,anti-tumor treatment / inhibition of tumor development (in words),"mice inoculated i.v. with 3LL cells, treated with DS",did not inhibit the tumor development at all
